Data published in PubChem BioAssay AID248 (DTP/NCI, 2004).
Values joined by “and” are separate entries in the source; they are usually repeats but may differ in a detail not shown here. Equal values may be shown once. Toxic doses and inconclusive results are not listed. No stated cut-off is given here; in the data, active means T/C of 150% or more; inactive means T/C below 125%.

System: L1210 leukemia ip in BDF1 mice, survival T/C
Experiment: NCI In Vivo Anticancer Drug Screen. Data for tumor model L1210 Leukemia (intraperitoneal) in B6D2F1 (BDF1) mice
Settings: endpoint: mean survival time, higher = longer survival
Summary of the method: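 Transplanted-tumor mice were given test agent; controls received vehicle only. Survival readings from the two groups were divided (treated over control).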

[1] = dose: 100.0 mg/kg/injection, schedule: Q01DX009 (ip), vehicle: saline with Tween-80
[2] = dose: 100.0 mg/kg/injection, schedule: Q04DX003 (ip), vehicle: saline with Tween-80
[3] = dose: 200.0 mg/kg/injection, schedule: Q01DX009 (ip), vehicle: saline with Tween-80
[4] = dose: 200.0 mg/kg/injection, schedule: Q04DX003 (ip), vehicle: saline with Tween-80
[5] = dose: 400.0 mg/kg/injection, schedule: Q01DX009 (ip), vehicle: saline with Tween-80
[6] = dose: 400.0 mg/kg/injection, schedule: Q04DX003 (ip), vehicle: saline with Tween-80
[7] = dose: 100.0 mg/kg/injection, schedule: Q01DX001 (ip), vehicle: saline
[8] = dose: 200.0 mg/kg/injection, schedule: Q01DX001 (ip), vehicle: saline
[9] = dose: 400.0 mg/kg/injection, schedule: Q01DX001 (ip), vehicle: saline
[10] = dose: 100.0 mg/kg/injection, schedule: Q04DX003 (ip), vehicle: Klucel (hydroxypropylcellulose) (HPC)
[11] = dose: 200.0 mg/kg/injection, schedule: Q04DX003 (ip), vehicle: Klucel (hydroxypropylcellulose) (HPC)
[12] = dose: 400.0 mg/kg/injection, schedule: Q04DX003 (ip), vehicle: Klucel (hydroxypropylcellulose) (HPC)
[13] = dose: 100.0 mg/kg/injection, schedule: Q04DX003 (ip), vehicle: saline
[14] = dose: 200.0 mg/kg/injection, schedule: Q04DX003 (ip), vehicle: saline
[15] = dose: 400.0 mg/kg/injection, schedule: Q04DX003 (ip), vehicle: saline
[16] = dose: 12.5 mg/kg/injection, schedule: Q01DX009 (ip), vehicle: Klucel (hydroxypropylcellulose) (HPC)
[17] = dose: 100.0 mg/kg/injection, schedule: Q01DX009 (ip), vehicle: Klucel (hydroxypropylcellulose) (HPC)
[18] = dose: 200.0 mg/kg/injection, schedule: Q01DX009 (ip), vehicle: Klucel (hydroxypropylcellulose) (HPC)
[19] = dose: 400.0 mg/kg/injection, schedule: Q01DX009 (ip), vehicle: Klucel (hydroxypropylcellulose) (HPC)

Measured: T/C

COc1ccccc1NC(=O)Nc1cc(C)cc(C)n1
inactive: [1] 101 % of control | [2] 97 % of control | [3] 98 % of control | [4] 97 % of control | [5] 104 % of control | [6] 101 % of control

CCOC(=O)C(Cc1ccc(Cl)c(Cl)c1)(Cc1ccc(Cl)c(Cl)c1)C(=O)OCC
inactive: [1] 104 % of control | [2] 88 % of control | [3] 97 % of control | [4] 89 % of control | [5] 95 % of control | [6] 105 % of control

O=C(c1ccccc1)C(Br)[N+](=O)[O-] (stereo not drawn)
inactive: [7] 100 % of control | [8] 103 % of control | [9] 96 % of control

ClC12CCCC3CCCC(CCC1)C32 (stereo not drawn)
inactive: [1] 101 % of control | [10] 103 % of control | [3] 90 % of control | [11] 97 % of control | [5] 89 % of control | [12] 96 % of control

CCCCCCCCCCS(=O)(=O)CCS(=O)(=O)CCCCCCCCCC
inactive: [10] 97 % of control | [11] 95 % of control | [12] 97 % of control

NC(=S)S.[Zn+2]
inactive: dose: 13.3 mg/kg/injection, schedule: Q01DX Z (ip), vehicle: methylcellulose (MC) 96 % of control | dose: 20.0 mg/kg/injection, schedule: Q01DX Z (ip), vehicle: methylcellulose (MC) 90 % of control | dose: 30.0 mg/kg/injection, schedule: Q01DX Z (ip), vehicle: methylcellulose (MC) 90 % of control

CCc1c(N)nc(N)nc1Cl
inactive: dose: 25.0 mg/kg/injection, schedule: Q01DX Z (ip), vehicle: methylcellulose (MC) 91 % of control

O=C(O)CCCNC(=O)C(F)(F)F
inactive: dose: 100.0 mg/kg/injection, schedule: Q01DX001 (ip), vehicle: saline with Tween-80 95 % of control and 98 % of control | dose: 100.0 mg/kg/injection, schedule: Q04DX002 (ip), vehicle: saline with Tween-80 101 % of control and 103 % of control | [2] 100 % of control | dose: 200.0 mg/kg/injection, schedule: Q01DX001 (ip), vehicle: saline with Tween-80 95 % of control and 91 % of control | dose: 200.0 mg/kg/injection, schedule: Q04DX002 (ip), vehicle: saline with Tween-80 95 % of control and 92 % of control | [4] 95 % of control and 96 % of control | dose: 400.0 mg/kg/injection, schedule: Q01DX001 (ip), vehicle: saline with Tween-80 96 % of control and 92 % of control | dose: 400.0 mg/kg/injection, schedule: Q04DX002 (ip), vehicle: saline with Tween-80 100 % of control and 108 % of control | [6] 93 % of control and 100 % of control

CC(=O)C(=O)N1Cc2cc3ccccc3nc2C1
inactive: [13] 115 % of control | [14] 102 % of control | [15] 102 % of control

CN(C)C=Nc1ccc(C#N)cc1
inactive: dose: 100.0 mg/kg/injection, schedule: Q04DX002 (ip), vehicle: saline 98 % of control | dose: 200.0 mg/kg/injection, schedule: Q04DX002 (ip), vehicle: saline 91 % of control | dose: 400.0 mg/kg/injection, schedule: Q04DX002 (ip), vehicle: saline 91 % of control

NC(=O)c1nc2c([nH]c1=O)CCCC2
inactive: [1] 94 % of control | [2] 93 % of control | [3] 94 % of control | [4] 94 % of control | [5] 94 % of control | [6] 94 % of control

CCOC(=O)C(N=Nc1ccccc1)C(C)=O (stereo not drawn)
inactive: [16] 100 % of control | dose: 25.0 mg/kg/injection, schedule: Q01DX009 (ip), vehicle: Klucel (hydroxypropylcellulose) (HPC) 97 % of control | dose: 50.0 mg/kg/injection, schedule: Q01DX009 (ip), vehicle: Klucel (hydroxypropylcellulose) (HPC) 94 % of control | [10] 103 % of control | [11] 100 % of control | [12] 88 % of control

CN(C)c1ccc(/C=C/C(=O)/C=C/c2ccc(N(C)C)cc2)cc1
inactive: [17] 96 % of control | [18] 95 % of control | [19] 101 % of control

CCCCCCCCCCCCCSCCCCCCCCCCCCSCCCCCCCCCCCC
inactive: dose: 100.0 mg/kg/injection, schedule: Q01DX001 (ip), vehicle: Klucel (hydroxypropylcellulose) (HPC) 89 % of control | dose: 200.0 mg/kg/injection, schedule: Q01DX001 (ip), vehicle: Klucel (hydroxypropylcellulose) (HPC) 88 % of control | dose: 400.0 mg/kg/injection, schedule: Q01DX001 (ip), vehicle: Klucel (hydroxypropylcellulose) (HPC) 89 % of control

CCCCCCCCCCCCCCCCCCNC(=O)OCC
inactive: dose: 100.0 mg/kg/injection, schedule: Q04DX002 (sc), vehicle: olive oil, sesame oil, peanut oil 103 % of control | dose: 200.0 mg/kg/injection, schedule: Q04DX002 (sc), vehicle: olive oil, sesame oil, peanut oil 113 % of control | dose: 400.0 mg/kg/injection, schedule: Q04DX002 (sc), vehicle: olive oil, sesame oil, peanut oil 106 % of control

N#Cc1cnccn1
inactive: dose: 100.0 mg/kg/injection, schedule: Q01DX009 (ip), vehicle: saline 103 % of control | [13] 93 % of control | dose: 200.0 mg/kg/injection, schedule: Q01DX009 (ip), vehicle: saline 104 % of control | [14] 100 % of control | dose: 400.0 mg/kg/injection, schedule: Q01DX009 (ip), vehicle: saline 104 % of control | [15] 93 % of control

CC1CN1C1=C(Cl)C(=O)C(N2CC2C)=C(Cl)C1=O (stereo not drawn)
inactive: dose: 0.78 mg/kg/injection, schedule: Q01DX009 (ip), vehicle: Klucel (hydroxypropylcellulose) (HPC) 104 % of control | dose: 1.56 mg/kg/injection, schedule: Q01DX009 (ip), vehicle: Klucel (hydroxypropylcellulose) (HPC) 105 % of control | dose: 3.12 mg/kg/injection, schedule: Q01DX009 (ip), vehicle: Klucel (hydroxypropylcellulose) (HPC) 102 % of control | dose: 6.25 mg/kg/injection, schedule: Q01DX009 (ip), vehicle: Klucel (hydroxypropylcellulose) (HPC) 96 % of control | [16] 107 % of control

Cn1nnc(C(N)=O)n1
inactive: [7] 93 % of control | [8] 98 % of control | [9] 94 % of control

O=C(O)C1Cc2ccccc2-c2ccccc21 (stereo not drawn)
inactive: dose: 75.0 mg/kg/injection, schedule: Q01DX001 (ip), vehicle: saline 102 % of control | dose: 150.0 mg/kg/injection, schedule: Q01DX001 (ip), vehicle: saline 88 % of control | dose: 300.0 mg/kg/injection, schedule: Q01DX001 (ip), vehicle: saline 100 % of control

CN(C)C=Nc1ccc([N+](=O)[O-])c2ccccc12
inactive: [2] 103 % of control | [4] 106 % of control | [6] 104 % of control

CN(C)S(=O)(=O)/C=C/c1ccccc1
inactive: [11] 95 % of control | [12] 109 % of control

COc1cc(C(=O)N(C)C)nc(OC)n1
inactive: [13] 106 % of control | [14] 108 % of control | [15] 106 % of control

COC(=O)C(O)c1ccc2c(c1)OCO2 (stereo not drawn)
inactive: dose: 100.0 mg/kg/injection, schedule: Q04DX003 (ip), vehicle: saline sonified 97 % of control | dose: 200.0 mg/kg/injection, schedule: Q04DX003 (ip), vehicle: saline sonified 97 % of control | dose: 400.0 mg/kg/injection, schedule: Q04DX003 (ip), vehicle: saline sonified 93 % of control

Cc1cc(N2C(=O)CSC2=S)ccc1Br
inactive: [1] 104 % of control | [2] 96 % of control | [3] 93 % of control | [4] 93 % of control | [6] 104 % of control

CC1=CC(c2ccc3c(c2)OCO3)c2c(c3ccccc3oc2=O)O1 (stereo not drawn)
inactive: dose: 6.25 mg/kg/injection, schedule: Q01DX009 (ip), vehicle: water 98 % of control | dose: 12.5 mg/kg/injection, schedule: Q01DX009 (ip), vehicle: water 93 % of control | dose: 25.0 mg/kg/injection, schedule: Q01DX009 (ip), vehicle: water 100 % of control and 90 % of control | dose: 50.0 mg/kg/injection, schedule: Q01DX009 (ip), vehicle: water 86 % of control

CCCCC(=O)c1ccc(F)cc1
inactive: [17] 96 % of control | [10] 105 % of control | [18] 98 % of control | [11] 93 % of control | [19] 98 % of control | [12] 100 % of control

CC(C)COC(=O)C(C)OC(=O)OCCOCCOC(=O)OC(C)C(=O)OCC(C)C (stereo not drawn)
inactive: [7] 100 % of control | [8] 102 % of control | [9] 100 % of control

CN(C)/C=N/c1nccs1
inactive: [7] 104 % of control | [8] 107 % of control | [9] 107 % of control
